Experimental data taken from the supplement of paper PMC9663587.

Each molecule was assayed on HCC1428 (assay: area over the GR curve, 72 h; higher = more effect;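 note: Dye Drop or Deep Dye Drop imaging of viable cells in 384-well plates (Hoechst nuclei, LIVE/DEAD dye), nine half-log doses, GR normalized to DMSO controls and time-zero plates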).

Structure (SMILES) | area over the GR curve [GR]
CC[C@@H]1C(=O)N(C)c2cnc(Nc3ccc(C(=O)N[C@H]4CC[C@H](N5CCN(CC6CC6)CC5)CC4)cc3OC)nc2N1C(C)C [Volasertib/BI6727] (max 1 µM) | 0.395
O=C(CCCCCCC(=O)Nc1ccccc1)NO [Vorinostat] (max 10 µM) | 0.339

These molecules were tested on HCC1500 (assay: area over the GR curve, 72 h; higher = more effect;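 note: Dye Drop or Deep Dye Drop imaging of viable cells in 384-well plates (Hoechst nuclei, LIVE/DEAD dye), nine half-log doses, GR normalized to DMSO controls and time-zero plates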).

Structure (SMILES) | area over the GR curve [GR]
CN1CCN(CCOc2cc(OC3CCOCC3)c3c(Nc4c(Cl)ccc5c4OCO5)ncnc3c2)CC1 [Saracatinib/AZD0530] (max 10 µM) | 0.433
Cc1cc(C(C)Nc2ccccc2)c2nc(N3CCOCC3)cc(=O)n2c1 (centres undefined) [TGX221] (max 10 µM) | 0.0613
Cc1nc(-c2cn3c(n2)-c2ccc(-c4cnn(C(C)(C)C(N)=O)c4)cc2OCC3)n(C(C)C)n1 [Taselisib/GDC0032] (max 10 µM) | 0.209
O=C1NC(=O)[C@@H](c2cn3c4c(cccc24)CCC3)[C@@H]1c1c[nH]c2ccccc12 [Tivantinib/ARQ197] (max 10 µM) | 0.491
Nc1ccc(-c2ccc3ncc4ccc(=O)n(-c5cccc(C(F)(F)F)c5)c4c3c2)cn1 [Torin2] (max 1 µM) | 0.888
CC[C@@H]1C(=O)N(C)c2cnc(Nc3ccc(C(=O)N[C@H]4CC[C@H](N5CCN(CC6CC6)CC5)CC4)cc3OC)nc2N1C(C)C [Volasertib/BI6727] (max 1 µM) | 0.297
O=C(CCCCCCC(=O)Nc1ccccc1)NO [Vorinostat] (max 10 µM) | 0.301

Each molecule was assayed on MCF10A (GM) (assay: area over the GR curve, 72 h; higher = more effect;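 note: Dye Drop or Deep Dye Drop imaging of viable cells in 384-well plates (Hoechst nuclei, LIVE/DEAD dye), nine half-log doses, GR normalized to DMSO controls and time-zero plates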).

Structure (SMILES) | area over the GR curve [GR]
COc1ccc2c(c1)[C@]1(C[C@H]1c1ccc3c(/C=C/c4ccc(CN5C[C@@H](C)O[C@@H](C)C5)cc4)n[nH]c3c1)C(=O)N2 | 0.507
COc1cccc(OCCCN)c1-c1cc(Nc2cnc(C#N)cn2)n[nH]1 | 0.245
CCCCOc1c(C(=O)c2c(F)cc(C)cc2F)c[nH]c2nncc1-2 (max 10 µM) | 0.423
CNc1nc(-c2ccc3c(N)n[nH]c3c2)cc(N2C[C@@H](C(=O)NC3CCCCC3)CC[C@H]2C)n1 (max 10 µM) | 0.0279
CO[C@@H](C)Cn1c(=O)n(C)c2cnc3ccc(-c4cncc(C(C)(C)O)c4)cc3c21 (max 10 µM) | 0.67
C=CCn1c(=O)c2cnc(Nc3ccc(N4CCN(C)CC4)cc3)nc2n1-c1cccc(C(C)(C)O)n1 [AZD1775] (max 10 µM) | 0.136
CNC(=O)c1cccc(-c2ccc3c(N4CCOC[C@@H]4C)nc(N4CCOC[C@@H]4C)nc3n2)c1 [AZD2014] (max 10 µM) | 0.533
NC1(C(=O)N[C@@H](CCO)c2ccc(Cl)cc2)CCN(c2nc[nH]c3nccc2-3)CC1 [AZD5363] (max 10 µM) | 0.214
C[C@@H]1COCCN1c1cc(C2([S@](C)(=N)=O)CC2)nc(-c2cc[nH]c3nccc2-3)n1 [AZD6738] (max 10 µM) | 0.073
CN(C)C/C=C/C(=O)Nc1ccc(O[C@@H]2CCC[C@@H](Nc3ncc(Cl)c(-c4c[nH]c5ccccc45)n3)C2)cc1 [BSJ-01-175] (max 10 µM) | 0.326
CC(=O)c1c(C)c2cnc(Nc3ccc(N4CCN(CCOCCOCCOCCNC(=O)COc5cccc6c5C(=O)N(C5CCC(=O)NC5=O)C6=O)CC4)cn3)nc2n(C2CCCC2)c1=O (centres undefined) [BSJ-03-123] (max 10 µM) | 0.25
CC(C)Nc1cc(-c2c[nH]c(C(=O)N[C@H](CO)c3cccc(Cl)c3)c2)c(Cl)cn1 [BVD523] (max 10 µM) | 0.266
CCC(=O)Nc1ccc(C(=O)Nc2ccc(Nc3ncc4c(n3)N(C)c3ccc(C)cc3C(=O)N4C)cc2)cc1 [FMF-03-145-1] | 0.376
COc1cc(N2CCN(C)CC2)ccc1Nc1ncc2c(n1)N(C)c1ccccc1C(=O)N2CC(F)(F)F [FMF-03-146-1] | 0.001
CN1CC[C@H](c2c(O)cc(O)c3c(=O)cc(-c4ccccc4Cl)oc23)[C@H](O)C1 [Flavopiridol] (max 1 µM) | 0.316
CN(C)C(=O)c1cc2cnc(Nc3ccc(N4CCNCC4)cn3)nc2n1C1CCCC1 [LEE011/Ribociclib] (max 10 µM) | 0.166
O=C1NC(=NCc2cccs2)SC1=Cc1ccc2ncccc2c1 [R0-3306] (max 10 µM) | 0.0788
CNCc1ccc(-c2[nH]c3cc(F)cc4c3c2CCNC4=O)cc1 [Rucaparib] (max 10 µM) | 0.0455
CC1(N)CCN(c2cnc(-c3cccc(Cl)c3Cl)c(N)n2)CC1 [SHP099] (max 10 µM) | 0.0203
CN(C)C/C=C/C(=O)Nc1ccc(C(=O)Nc2cccc(Nc3ncc(Cl)c(-c4c[nH]c5ccccc45)n3)c2)cc1 [THZ1] (max 1 µM) | 0.374
CN(C)C/C=C/C(=O)Nc1ccc(C(=O)N2CCC[C@@H](Nc3ncc(Cl)c(-c4c[nH]c5ccccc45)n3)C2)cc1 [THZ531] (max 1 µM) | 0.134
CN(C)C/C=C/C(=O)Nc1ccc(C(=O)Nc2cccc(Nc3cc(-c4c[nH]c5ccccc45)ncn3)c2)cc1 [THZ-P1-2] (max 10 µM) | 0.0927
C=CC(=O)Nc1ccc(C(=O)Nc2[nH]nc3c2CN(C(=O)N[C@H](CN(C)C)c2ccccc2)C3(C)C)cc1 [YKL-5-124] (max 10 µM) | 0.982
CN1CCN(C(=O)c2ccc3cc(CCNc4ncnc5ccc(C#N)cc45)ccc3c2)CC1 [senexin b] (max 10 µM) | 0.0206

What follows are molecules tested on MDAMB157 (assay: area over the GR curve, 72 h; higher = more effect;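 note: Dye Drop or Deep Dye Drop imaging of viable cells in 384-well plates (Hoechst nuclei, LIVE/DEAD dye), nine half-log doses, GR normalized to DMSO controls and time-zero plates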).

Structure (SMILES) | area over the GR curve [GR]
CN1CCN(CCOc2cc(OC3CCOCC3)c3c(Nc4c(Cl)ccc5c4OCO5)ncnc3c2)CC1 [Saracatinib/AZD0530] (max 10 µM) | 0.17
Cc1cc(C(C)Nc2ccccc2)c2nc(N3CCOCC3)cc(=O)n2c1 (centres undefined) [TGX221] (max 10 µM) | -0.005
Cc1nc(-c2cn3c(n2)-c2ccc(-c4cnn(C(C)(C)C(N)=O)c4)cc2OCC3)n(C(C)C)n1 [Taselisib/GDC0032] (max 10 µM) | 0.339
O=C1NC(=O)[C@@H](c2cn3c4c(cccc24)CCC3)[C@@H]1c1c[nH]c2ccccc12 [Tivantinib/ARQ197] (max 10 µM) | 0.388
Nc1ccc(-c2ccc3ncc4ccc(=O)n(-c5cccc(C(F)(F)F)c5)c4c3c2)cn1 [Torin2] (max 1 µM) | 0.41
CC[C@@H]1C(=O)N(C)c2cnc(Nc3ccc(C(=O)N[C@H]4CC[C@H](N5CCN(CC6CC6)CC5)CC4)cc3OC)nc2N1C(C)C [Volasertib/BI6727] (max 1 µM) | 0.851
O=C(CCCCCCC(=O)Nc1ccccc1)NO [Vorinostat] (max 10 µM) | 0.297

What follows are molecules tested on PDX1206 (assay: area over the GR curve, 72 h; higher = more effect).

Structure (SMILES) | area over the GR curve [GR]
COc1ccc2c(c1)[C@]1(C[C@H]1c1ccc3c(/C=C/c4ccc(CN5C[C@@H](C)O[C@@H](C)C5)cc4)n[nH]c3c1)C(=O)N2 | 0.504
COc1cccc(OCCCN)c1-c1cc(Nc2cnc(C#N)cn2)n[nH]1 | 0.427
CCCCOc1c(C(=O)c2c(F)cc(C)cc2F)c[nH]c2nncc1-2 (max 10 µM) | 0.691
CNc1nc(-c2ccc3c(N)n[nH]c3c2)cc(N2C[C@@H](C(=O)NC3CCCCC3)CC[C@H]2C)n1 (max 10 µM) | 0.327
CO[C@@H](C)Cn1c(=O)n(C)c2cnc3ccc(-c4cncc(C(C)(C)O)c4)cc3c21 (max 10 µM) | 0.804
C=CCn1c(=O)c2cnc(Nc3ccc(N4CCN(C)CC4)cc3)nc2n1-c1cccc(C(C)(C)O)n1 [AZD1775] (max 10 µM) | 0.455
CNC(=O)c1cccc(-c2ccc3c(N4CCOC[C@@H]4C)nc(N4CCOC[C@@H]4C)nc3n2)c1 [AZD2014] (max 10 µM) | 0.697
NC1(C(=O)N[C@@H](CCO)c2ccc(Cl)cc2)CCN(c2nc[nH]c3nccc2-3)CC1 [AZD5363] (max 10 µM) | 0.4
C[C@@H]1COCCN1c1cc(C2([S@](C)(=N)=O)CC2)nc(-c2cc[nH]c3nccc2-3)n1 [AZD6738] (max 10 µM) | 0.0536
CN(C)C/C=C/C(=O)Nc1ccc(O[C@@H]2CCC[C@@H](Nc3ncc(Cl)c(-c4c[nH]c5ccccc45)n3)C2)cc1 [BSJ-01-175] (max 10 µM) | 0.9
CC(=O)c1c(C)c2cnc(Nc3ccc(N4CCN(CCOCCOCCOCCNC(=O)COc5cccc6c5C(=O)N(C5CCC(=O)NC5=O)C6=O)CC4)cn3)nc2n(C2CCCC2)c1=O (centres undefined) [BSJ-03-123] (max 10 µM) | 0.163
CC(C)Nc1cc(-c2c[nH]c(C(=O)N[C@H](CO)c3cccc(Cl)c3)c2)c(Cl)cn1 [BVD523] (max 10 µM) | 0.0779
CCC(=O)Nc1ccc(C(=O)Nc2ccc(Nc3ncc4c(n3)N(C)c3ccc(C)cc3C(=O)N4C)cc2)cc1 [FMF-03-145-1] | 0.946
COc1cc(N2CCN(C)CC2)ccc1Nc1ncc2c(n1)N(C)c1ccccc1C(=O)N2CC(F)(F)F [FMF-03-146-1] | -0.0165
CN1CC[C@H](c2c(O)cc(O)c3c(=O)cc(-c4ccccc4Cl)oc23)[C@H](O)C1 [Flavopiridol] (max 1 µM) | 0.458
CN(C)C(=O)c1cc2cnc(Nc3ccc(N4CCNCC4)cn3)nc2n1C1CCCC1 [LEE011/Ribociclib] (max 10 µM) | 0.166
O=C1NC(=NCc2cccs2)SC1=Cc1ccc2ncccc2c1 [R0-3306] (max 10 µM) | 0.197
CNCc1ccc(-c2[nH]c3cc(F)cc4c3c2CCNC4=O)cc1 [Rucaparib] (max 10 µM) | 0.114
CC1(N)CCN(c2cnc(-c3cccc(Cl)c3Cl)c(N)n2)CC1 [SHP099] (max 10 µM) | 0.0699
CN(C)C/C=C/C(=O)Nc1ccc(C(=O)Nc2cccc(Nc3ncc(Cl)c(-c4c[nH]c5ccccc45)n3)c2)cc1 [THZ1] (max 1 µM) | 0.506
CN(C)C/C=C/C(=O)Nc1ccc(C(=O)N2CCC[C@@H](Nc3ncc(Cl)c(-c4c[nH]c5ccccc45)n3)C2)cc1 [THZ531] (max 1 µM) | 0.407
CN(C)C/C=C/C(=O)Nc1ccc(C(=O)Nc2cccc(Nc3cc(-c4c[nH]c5ccccc45)ncn3)c2)cc1 [THZ-P1-2] (max 10 µM) | -0.0028
C=CC(=O)Nc1ccc(C(=O)Nc2[nH]nc3c2CN(C(=O)N[C@H](CN(C)C)c2ccccc2)C3(C)C)cc1 [YKL-5-124] (max 10 µM) | 0.57
CN1CCN(C(=O)c2ccc3cc(CCNc4ncnc5ccc(C#N)cc45)ccc3c2)CC1 [senexin b] (max 10 µM) | 0.37
